In patent US12486253B2, “Therapeutics for the degradation of mutant BRAF” (C4 THERAPEUTICS, INC., priority 2021, dated 2025):
Read-outs that look alike come from different tables or passages of the source.

Target: BRAF V600E (Homo sapiens, UniProt P15056, V600E)
Experiment: HiBiT cellular BRAF^V600E degradation assay
Format: cell-based
Settings: for DC50: concentration at which 50% of total cellular BRAF^V600E is degraded; for Emax: read-out: HiBit 24 h Emax
[1] = A375.10 cells, 24 h, residual protein remaining in the cell

Sequence of BRAF V600E (P15056 whole entry V600E): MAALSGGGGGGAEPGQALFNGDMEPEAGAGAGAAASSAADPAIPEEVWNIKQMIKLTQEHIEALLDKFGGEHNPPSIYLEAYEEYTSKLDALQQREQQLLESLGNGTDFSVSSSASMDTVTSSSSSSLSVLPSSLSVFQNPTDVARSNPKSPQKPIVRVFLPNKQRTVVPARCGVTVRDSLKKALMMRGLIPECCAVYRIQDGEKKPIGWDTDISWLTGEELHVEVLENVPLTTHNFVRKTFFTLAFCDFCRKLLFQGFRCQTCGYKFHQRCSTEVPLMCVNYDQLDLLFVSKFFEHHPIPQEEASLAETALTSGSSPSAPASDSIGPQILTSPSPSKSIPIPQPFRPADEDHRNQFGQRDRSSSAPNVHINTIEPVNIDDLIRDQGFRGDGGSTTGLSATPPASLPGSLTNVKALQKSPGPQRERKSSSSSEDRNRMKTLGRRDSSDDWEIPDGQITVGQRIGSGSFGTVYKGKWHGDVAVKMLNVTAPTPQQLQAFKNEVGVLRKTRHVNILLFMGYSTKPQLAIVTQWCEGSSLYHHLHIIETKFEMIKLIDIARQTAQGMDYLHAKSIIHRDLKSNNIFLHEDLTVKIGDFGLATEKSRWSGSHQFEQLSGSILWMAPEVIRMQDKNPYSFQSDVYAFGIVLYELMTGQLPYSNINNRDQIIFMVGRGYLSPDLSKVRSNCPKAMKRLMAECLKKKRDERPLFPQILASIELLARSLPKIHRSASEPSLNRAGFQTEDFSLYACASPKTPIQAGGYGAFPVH

SMILES	DC50 (A375.10 cells, 24 h)	Emax [1]	Emax
CCN(C)S(=O)(=O)Nc1ccc(F)c(Oc2ccc3ncn(C4COC5(CCN(C(=O)NC6CCN(c7ccc(NC8CCC(=O)NC8=O)cc7F)CC6)CC5)C4)c(=O)c3c2)c1C#N (centres unmarked) [Example 38, 3-[6-[2-cyano-3-[[ethyl(methyl)sulfamoyl]amino]-6-fluorophenoxy]-4-oxoquinazolin-3-yl]-N-[1-[4-[(2,6-dioxopiperidin-3-yl)amino]-2-fluorophenyl]piperidin-4-yl]-1-oxa-8-azaspiro[4.5]decane-8-carboxamide]	36 nM		11.4%
CCN(C)S(=O)(=O)Nc1ccc(F)c(Oc2ccc3ncn(C4CC5(CCN(C(=O)[C@H]6C[C@H](N7CC(c8ccc(NC9CCC(=O)NC9=O)cc8F)C7)C6)CC5)C4)c(=O)c3c2)c1C#N (some centres unmarked) [Example 39, 6-[2-cyano-3-[[ethyl(methyl)sulfamoyl]amino]-6-fluorophenoxy]-3-[7-[3-[3-[4-[(2,6-dioxopiperidin-3-yl)amino]-2-fluorophenyl]azetidin-1-yl]cyclobutanecarbonyl]-7-azaspiro[3.5]nonan-2-yl]-4-oxoquinazoline]	27.5 nM	15.7%	
CCN(C)S(=O)(=O)Nc1ccc(F)c(Oc2ccc3ncn([C@H]4COC5(CCN(C(=O)CN6CCC(c7ccc(N[C@@H]8CCC(=O)NC8=O)cc7F)CC6)CC5)C4)c(=O)c3c2)c1C#N [Example 42, (3R)-3-[6-[2-cyano-3-[[ethyl(methyl)sulfamoyl]amino]-6-fluorophenoxy]-4-oxoquinazolin-3-yl]-8-[2-[4-[4-[[(3R)-2,6-dioxopiperidin-3-yl]amino]-2-fluorophenyl]piperidin-1-yl]acetyl]-1-oxa-8-azaspiro[4.5]decane]	22.1 nM	8.88%	
CCN(C)S(=O)(=O)Nc1ccc(F)c(Oc2ccc3ncn([C@H]4COC5(CCN(C(=O)CN6CCC(c7ccc(N[C@H]8CCC(=O)NC8=O)cc7F)CC6)CC5)C4)c(=O)c3c2)c1C#N [Example 43, (3R)-3-[6-[2-cyano-3-[[ethyl(methyl)sulfamoyl]amino]-6-fluorophenoxy]-4-oxoquinazolin-3-yl]-8-[2-[4-[4-[[(3S)-2,6-dioxopiperidin-3-yl]amino]-2-fluorophenyl]piperidin-1-yl]acetyl]-1-oxa-8-azaspiro[4.5]decane]	23.7 nM	9.95%	
CCN(C)S(=O)(=O)Nc1ccc(F)c(Oc2ccc3ncn([C@@H]4CCC5(CCN(C(=O)CN6CCC(c7ccc(N[C@@H]8CCC(=O)NC8=O)cc7F)CC6)CC5)C4)c(=O)c3c2)c1C#N [Example 44, 6-[2-cyano-3-[[ethyl(methyl)sulfamoyl]amino]-6-fluorophenoxy]-3-[(3R)-8-[2-[4-[4-[[(3R)-2,6-dioxopiperidin-3-yl]amino]-2-fluorophenyl]piperidin-1-yl]acetyl]-8-azaspiro[4.5]decan-3-yl]-4-oxoquinazoline]	25.1 nM	14.4%	
CCN(C)S(=O)(=O)Nc1ccc(F)c(Oc2ccc3ncn([C@@H]4CCC5(CCN(C(=O)CN6CCC(c7ccc(N[C@H]8CCC(=O)NC8=O)cc7F)CC6)CC5)C4)c(=O)c3c2)c1C#N [Example 45, 6-[2-cyano-3-[[ethyl(methyl)sulfamoyl]amino]-6-fluorophenoxy]-3-[(3R)-8-[2-[4-[4-[[(3S)-2,6-dioxopiperidin-3-yl]amino]-2-fluorophenyl]piperidin-1-yl]acetyl]-8-azaspiro[4.5]decan-3-yl]-4-oxoquinazoline]	18.7 nM	11.3%	
CCN(C)S(=O)(=O)Nc1ccc(F)c(Oc2ccc3ncn([C@H]4COC5(CCN(C(=O)CN6CCC(c7ccc(C8CCC(=O)NC8=O)cc7F)CC6)CC5)C4)c(=O)c3c2)c1C#N (stereo partly drawn) [Example 46, (3R)-3-[6-[2-cyano-3-[[ethyl(methyl)sulfamoyl]amino]-6-fluorophenoxy]-4-oxoquinazolin-3-yl]-8-[2-[4-[4-(2,6-dioxopiperidin-3-yl)-2-fluorophenyl]piperidin-1-yl]acetyl]-1-oxa-8-azaspiro[4.5]decane]	29.9 nM	13.4%	

Further lines, with some results ahead:

DC50 (A375.10 cells, 24 h)	Emax [1]	SMILES	Emax
25.7 nM	19.3%	CCN(C)S(=O)(=O)Nc1ccc(F)c(Oc2ccc3ncn([C@H]4COC5(CCN(C(=O)CC6CCN(c7ccc(NC8CCC(=O)NC8=O)cc7F)CC6)CC5)C4)c(=O)c3c2)c1C#N (stereo partly drawn) [Example 47, (3R)-3-[6-[2-cyano-3-[[ethyl(methyl)sulfamoyl]amino]-6-fluorophenoxy]-4-oxoquinazolin-3-yl]-8-[2-[1-[4-[(2,6-dioxopiperidin-3-yl)amino]-2-fluorophenyl]piperidin-4-yl]acetyl]-1-oxa-8-azaspiro[4.5]decane]	
34.5 nM	15.6%	CCN(C)S(=O)(=O)Nc1ccc(F)c(Oc2ccc3ncn([C@H]4CCC5(CCN(C(=O)CN6CCN(c7ccc(NC8CCC(=O)NC8=O)cc7F)CC6)CC5)C4)c(=O)c3c2)c1C#N (stereo partly drawn) [Example 48, 6-[2-cyano-3-[[ethyl(methyl)sulfamoyl]amino]-6-fluorophenoxy]-3-[(3S)-8-[2-[4-[4-[(2,6-dioxopiperidin-3-yl)amino]-2-fluorophenyl]piperazin-1-yl]acetyl]-8-azaspiro[4.5]decan-3-yl]-4-oxoquinazoline]	
148 nM	10.8%	N#Cc1c(NS(=O)(=O)N2CC[C@@H](F)C2)ccc(F)c1Oc1ccc2ncn([C@H]3COC4(CCN(C(=O)CN5CCC(c6ccc(NC7CCC(=O)NC7=O)cc6F)CC5)CC4)C3)c(=O)c2c1 (stereo partly drawn) [Example 49, (3R)—N-[2-cyano-3-[3-[(3R)-8-[2-[4-[4-[(2,6-dioxopiperidin-3-yl)amino]-2-fluorophenyl]piperidin-1-yl]acetyl]-1-oxa-8-azaspiro[4.5]decan-3-yl]-4-oxoquinazolin-6-yl]oxy-4-fluorophenyl]-3-fluoropyrrolidine-1-sulfonamide]	
128 nM	13.4%	CCN(C)S(=O)(=O)Nc1ccc(F)c(Oc2ccc3ncn([C@H]4COC5(CCN(C(=O)CN6CCN(c7ccc(NC8CCC(=O)NC8=O)cc7F)CC6)CC5)C4)c(=O)c3c2)c1C#N (stereo partly drawn) [Example 50, (3R)-3-[6-[2-cyano-3-[[ethyl(methyl)sulfamoyl]amino]-6-fluorophenoxy]-4-oxoquinazolin-3-yl]-8-[2-[4-[4-[(2,6-dioxopiperidin-3-yl)amino]-2-fluorophenyl]piperazin-1-yl]acetyl]-1-oxa-8-azaspiro[4.5]decane]	
29.6 nM	10.9%	CCN(C)S(=O)(=O)Nc1ccc(F)c(Oc2ccc3ncn(C4COC5(CCN(C(=O)CN6CCC(c7ccc(NC8CCC(=O)NC8=O)cc7F)CC6)CC5)C4)c(=O)c3c2F)c1C#N (centres unmarked) [Example 51, 3-[6-[2-cyano-3-[[ethyl(methyl)sulfamoyl]amino]-6-fluorophenoxy]-5-fluoro-4-oxoquinazolin-3-yl]-8-[2-[4-[4-[(2,6-dioxopiperidin-3-yl)amino]-2-fluorophenyl]piperidin-1-yl]acetyl]-1-oxa-8-azaspiro[4.5]decane]	
20.7 nM	11.4%	CCN(C)S(=O)(=O)Nc1ccc(F)c(Oc2ccc3ncn(C4CCC5(CCN(C(=O)CN6CCC(c7ccc(NC8CCC(=O)NC8=O)cc7F)CC6)CC5)C4)c(=O)c3c2F)c1C#N (centres unmarked) [Example 52, 6-[2-cyano-3-[[ethyl(methyl)sulfamoyl]amino]-6-fluorophenoxy]-3-[8-[2-[4-[4-[(2,6-dioxopiperidin-3-yl)amino]-2-fluorophenyl]piperidin-1-yl]acetyl]-8-azaspiro[4.5]decan-3-yl]-5-fluoro-4-oxoquinazoline]	
